# pIC50: −log10 of the molar value. Where a name gives a salt, the structure may show the parent alone.
# Tests used:
# Assay type in all cases: biochemical
# Jak2 (a.a. 828-1132) = Jak2 (a.a. 828-1132) (Homo sapiens (Human), UniProt O60674); assay: In vitro JAK kinase assay (HTRF, phosphorylation of a biotinylated peptide), JAK2; details: measured at 1 mM ATP
# Procedure, shortened: (§1)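 Phosphorylation of a biotinylated peptide by purified His-tagged JAK catalytic domains (insect-cell baculovirus expression) ran 1 hr at room temperature. After stopping with EDTA, Eu-Py20 and SA-APC were bound for 40 minutes and HTRF measured.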
# [1] = molecular target: human JAK1 (a.a. 837-1142) (Homo sapiens, UniProt P23458); assay: In vitro JAK kinase assay (HTRF, phosphorylation of a biotinylated peptide), JAK1; details: measured at 1 mM ATP
# Procedure, shortened: as §1
# [2] = molecular target: human JAK1 (a.a. 837-1142); assay: as above; details: ratio of JAK2 IC50 to JAK1 IC50, measured at 1 mM ATP
# Procedure, shortened: as §1
# Chain of Jak2 (a.a. 828-1132) (O60674 828-1132): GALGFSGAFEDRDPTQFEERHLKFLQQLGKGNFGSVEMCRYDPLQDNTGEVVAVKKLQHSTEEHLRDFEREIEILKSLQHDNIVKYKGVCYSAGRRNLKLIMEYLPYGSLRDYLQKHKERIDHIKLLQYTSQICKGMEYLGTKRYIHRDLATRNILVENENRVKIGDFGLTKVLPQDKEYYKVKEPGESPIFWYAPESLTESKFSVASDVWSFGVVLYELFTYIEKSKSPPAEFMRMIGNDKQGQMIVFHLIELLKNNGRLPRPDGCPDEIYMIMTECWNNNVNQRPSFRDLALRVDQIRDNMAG
Compound,pIC50 (Jak2 (a.a. 828-1132)),pIC50 [1],IC50 Ratio JAK2/JAK1 [2]
"N#CCC1(n2cc(-c3ncnc4[nH]ccc34)cn2)CN(C2CCN(C(=O)c3cccc(F)c3F)CC2)C1 [Example 41, {1-[1-(2,3-difluorobenzoyl)piperidin-4-yl]-3-[4-(7H-pyrrolo[2,3-d]pyrimidin-4-yl)-1H-pyrazol-1-yl]azetidin-3-yl}acetonitrile]",≥ 8.00,≥ 8.30,4.9
"COc1cc(C(=O)N2CCC(N3CC(CC#N)(n4cc(-c5ncnc6[nH]ccc56)cn4)C3)CC2)ccc1F [Example 26, {1-[1-(4-fluoro-3-methoxybenzoyl)piperidin-4-yl]-3-[4-(7H-pyrrolo[2,3-d]pyrimidin-4-yl)-1H-pyrazol-1-yl]azetidin-3-yl}acetonitrile]",≥ 8.00,≥ 8.30,3.3
"N#CCC1(n2cc(-c3ncnc4[nH]ccc34)cn2)CN(C2CCN(C(=O)c3c(F)c(F)cc(F)c3F)CC2)C1 [Example 56, {3-[4-(7H-pyrrolo[2,3-d]pyrimidin-4-yl)-1H-pyrazol-1-yl]-1-[1-(2,3,5,6-tetrafluorobenzoyl)piperidin-4-yl]azetidin-3-yl}acetonitrile]",≥ 8.00,≥ 8.30,8.8
"N#CCC1(n2cc(-c3ncnc4[nH]ccc34)cn2)CN(C2CCN(C(=O)c3ncco3)CC2)C1 [Example 16, {1-[1-(1,3-oxazol-2-ylcarbonyl)piperidin-4-yl]-3-[4-(7H-pyrrolo[2,3-d]pyrimidin-4-yl)-1H-pyrazol-1-yl]azetidin-3-yl}acetonitrile]",7.30 to 8.00,7.70 to 8.30,2.5
"N#CCC1(n2cc(-c3ncnc4[nH]ccc34)cn2)CN(C2CCN(Cc3ccc(F)c(C#N)c3)CC2)C1 [Example 220, 5-[(4-{3-(cyanomethyl)-3-[4-(7H-pyrrolo[2,3-d]pyrimidin-4-yl)-1H-pyrazol-1-yl]azetidin-1-yl}piperidin-1-yl)methyl]-2-fluorobenzonitrile]",7.00 to 7.30,7.70 to 8.30,4.4
"Cn1c(NC(=O)N2CCC(N3CC(CC#N)(n4cc(-c5ncnc6[nH]ccc56)cn4)C3)CC2)nc2ccccc21 [Example 194, 4-{3-(cyanomethyl)-3-[4-(7H-pyrrolo[2,3-d]pyrimidin-4-yl)-1H-pyrazol-1-yl]azetidin-1-yl}-N-(1-methyl-1H-benzimidazol-2-yl)piperidine-1-carboxamide]",≥ 8.00,≥ 8.30,2.2
"N#CCC1(n2cc(-c3ccnc4[nH]ccc34)cn2)CN(C2CCN(C(=O)Nc3ccccc3F)CC2)C1 [Example 309, 4-{3-(cyanomethyl)-3-[4-(1H-pyrrolo[2,3-b]pyridin-4-yl)-1H-pyrazol-1-yl]azetidin-1-yl}-N-(2-fluorophenyl)piperidine-1-carboxamide]",7.30 to 8.00,7.70 to 8.30,5.3
"N#CCC1(n2cc(-c3c(F)cnc4[nH]ccc34)cn2)CN(C2CCN(C(=O)c3ccc(O)c(F)c3)CC2)C1 [Example 322, {1-[1-(3-fluoro-4-hydroxybenzoyl)piperidin-4-yl]-3-[4-(5-fluoro-1H-pyrrolo[2,3-b]pyridin-4-yl)-1H-pyrazol-1-yl]azetidin-3-yl}acetonitrile]",≥ 8.00,≥ 8.30,4.7
"CS(=O)(=O)N1CCC(N2CC(CC#N)(n3ccc(-c4ncnc5[nH]ccc45)c3)C2)CC1 [Example 348, {1-[1-(Methylsulfonyl)piperidin-4-yl]-3-[3-(7H-pyrrolo[2,3-d]pyrimidin-4-yl)-1H-pyrrol-1-yl]azetidin-3-yl}acetonitrile]",7.30 to 8.00,≥ 8.30,3.2
"Cc1ccccc1NC(=O)N1CCC(N2CC(CC#N)(n3cc(-c4ncnc5[nH]ccc45)cn3)C2)CC1 [Example 185, 4-{3-(cyanomethyl)-3-[4-(7H-pyrrolo[2,3-d]pyrimidin-4-yl)-1H-pyrazol-1-yl]azetidin-1-yl}-N-(2-methylphenyl)piperidine-1-carboxamide]",7.30 to 8.00,≥ 8.30,9.5
"N#CCC1(n2cc(-c3ncnc4[nH]ccc34)cn2)CN(C2CCN(C(=O)c3cc(CN4CC[C@H](F)C4)nc(C(F)(F)F)n3)CC2)C1 [Example 377, {1-(1-{[6-{[(3S)-3-fluoropyrrolidin-1-yl]methyl}-2-(trifluoromethyl)pyrimidin-4-yl]carbonyl}piperidin-4-yl)-3-[4-(7H-pyrrolo[2,3-d]pyrimidin-4-yl)-1H-pyrazol-1-yl]azetidin-3-yl}acetonitrile (trifluoroacetate salt: 4 TFA)]",7.30 to 8.00,≥ 8.30,35.7
"Cc1csc(NC(=O)N2CCC(N3CC(CC#N)(n4cc(-c5ncnc6[nH]ccc56)cn4)C3)CC2)n1 [Example 191, 4-{3-(cyanomethyl)-3-[4-(7H-pyrrolo[2,3-d]pyrimidin-4-yl)-1H-pyrazol-1-yl]azetidin-1-yl}-N-(4-methyl-1,3-thiazol-2-yl)piperidine-1-carboxamide]",7.30 to 8.00,7.52 to 7.70,1.4
"N#CCC1(n2cc(-c3ncnc4[nH]ccc34)cn2)CN(C2CCN(C(=O)Nc3ccc(F)cc3Cl)CC2)C1 [Example 162, N-(2-chloro-4-fluorophenyl)-4-{3-(cyanomethyl)-3-[4-(7H-pyrrolo[2,3-d]pyrimidin-4-yl)-1H-pyrazol-1-yl]azetidin-1-yl}piperidine-1-carboxamide]",7.30 to 8.00,≥ 8.30,13.6
"N#CCC1(n2cc(-c3ncnc4[nH]ccc34)cn2)CN(C2CC3CCC(C2)N3C(=O)c2ccnc(C(F)(F)F)c2F)C1 (stereo not drawn) [Example 142, {1-{8-[3-fluoro-2-(trifluoromethyl)isonicotinoyl]-8-azabicyclo[3.2.1]oct-3-yl}-3-[4-(7H-pyrrolo[2,3-d]pyrimidin-4-yl)-1H-pyrazol-1-yl]azetidin-3-yl}acetonitrile]",≥ 8.00,≥ 8.30,7.4
"N#CCC1(n2cc(-c3ncnc4[nH]ccc34)cn2)CN(C2CCN(C(=O)C3(c4ccc(Cl)cc4)CC3)CC2)C1 [Example 111, {1-(1-{[1-(4-chlorophenyl)cyclopropyl]carbonyl}piperidin-4-yl)-3-[4-(7H-pyrrolo[2,3-d]pyrimidin-4-yl)-1H-pyrazol-1-yl]azetidin-3-yl}acetonitrile]",7.30 to 8.00,7.70 to 8.30,2.6
"CC(C)COC(=O)N1CCC(N2CC(CC#N)(n3cc(-c4ncnc5[nH]ccc45)cn3)C2)CC1 [Example 390, isobutyl 4-{3-(cyanomethyl)-3-[4-(7H-pyrrolo[2,3-d]pyrimidin-4-yl)-1H-pyrazol-1-yl]azetidin-1-yl}piperidine-1-carboxylate]",7.30 to 8.00,≥ 8.30,8.3
"N#CCC1(n2cc(-c3ncnc4[nH]ccc34)cn2)CN(C2CCN(C(=O)c3ccccc3F)CC2)C1 [Example 67, {1-[1-(2-fluorobenzoyl)piperidin-4-yl]-3-[4-(7H-pyrrolo[2,3-d]pyrimidin-4-yl)-1H-pyrazol-1-yl]azetidin-3-yl}acetonitrile]",≥ 8.00,≥ 8.30,4.7

# Source: US9999619B2, “Piperidin-4-yl azetidine derivatives as JAK1 inhibitors” (Incyte Corporation, priority 2010, dated 2018)
